# From BindingDB's records for PubMed 29751237 (University of Kwazulu-Natal, 2018)
# pIC50: −log10 of the molar value.
# Biological target: Maltase-glucoamylase (Homo sapiens, UniProt O43451)
# Experiment: Inhibition of alpha-glucosidase (unknown origin) using p-nitrophenyl-alpha-D-glucopyranoside as substrate incubated for 30 mins by spectrophotometric analysis
# Sequence of Maltase-glucoamylase (O43451 whole entry): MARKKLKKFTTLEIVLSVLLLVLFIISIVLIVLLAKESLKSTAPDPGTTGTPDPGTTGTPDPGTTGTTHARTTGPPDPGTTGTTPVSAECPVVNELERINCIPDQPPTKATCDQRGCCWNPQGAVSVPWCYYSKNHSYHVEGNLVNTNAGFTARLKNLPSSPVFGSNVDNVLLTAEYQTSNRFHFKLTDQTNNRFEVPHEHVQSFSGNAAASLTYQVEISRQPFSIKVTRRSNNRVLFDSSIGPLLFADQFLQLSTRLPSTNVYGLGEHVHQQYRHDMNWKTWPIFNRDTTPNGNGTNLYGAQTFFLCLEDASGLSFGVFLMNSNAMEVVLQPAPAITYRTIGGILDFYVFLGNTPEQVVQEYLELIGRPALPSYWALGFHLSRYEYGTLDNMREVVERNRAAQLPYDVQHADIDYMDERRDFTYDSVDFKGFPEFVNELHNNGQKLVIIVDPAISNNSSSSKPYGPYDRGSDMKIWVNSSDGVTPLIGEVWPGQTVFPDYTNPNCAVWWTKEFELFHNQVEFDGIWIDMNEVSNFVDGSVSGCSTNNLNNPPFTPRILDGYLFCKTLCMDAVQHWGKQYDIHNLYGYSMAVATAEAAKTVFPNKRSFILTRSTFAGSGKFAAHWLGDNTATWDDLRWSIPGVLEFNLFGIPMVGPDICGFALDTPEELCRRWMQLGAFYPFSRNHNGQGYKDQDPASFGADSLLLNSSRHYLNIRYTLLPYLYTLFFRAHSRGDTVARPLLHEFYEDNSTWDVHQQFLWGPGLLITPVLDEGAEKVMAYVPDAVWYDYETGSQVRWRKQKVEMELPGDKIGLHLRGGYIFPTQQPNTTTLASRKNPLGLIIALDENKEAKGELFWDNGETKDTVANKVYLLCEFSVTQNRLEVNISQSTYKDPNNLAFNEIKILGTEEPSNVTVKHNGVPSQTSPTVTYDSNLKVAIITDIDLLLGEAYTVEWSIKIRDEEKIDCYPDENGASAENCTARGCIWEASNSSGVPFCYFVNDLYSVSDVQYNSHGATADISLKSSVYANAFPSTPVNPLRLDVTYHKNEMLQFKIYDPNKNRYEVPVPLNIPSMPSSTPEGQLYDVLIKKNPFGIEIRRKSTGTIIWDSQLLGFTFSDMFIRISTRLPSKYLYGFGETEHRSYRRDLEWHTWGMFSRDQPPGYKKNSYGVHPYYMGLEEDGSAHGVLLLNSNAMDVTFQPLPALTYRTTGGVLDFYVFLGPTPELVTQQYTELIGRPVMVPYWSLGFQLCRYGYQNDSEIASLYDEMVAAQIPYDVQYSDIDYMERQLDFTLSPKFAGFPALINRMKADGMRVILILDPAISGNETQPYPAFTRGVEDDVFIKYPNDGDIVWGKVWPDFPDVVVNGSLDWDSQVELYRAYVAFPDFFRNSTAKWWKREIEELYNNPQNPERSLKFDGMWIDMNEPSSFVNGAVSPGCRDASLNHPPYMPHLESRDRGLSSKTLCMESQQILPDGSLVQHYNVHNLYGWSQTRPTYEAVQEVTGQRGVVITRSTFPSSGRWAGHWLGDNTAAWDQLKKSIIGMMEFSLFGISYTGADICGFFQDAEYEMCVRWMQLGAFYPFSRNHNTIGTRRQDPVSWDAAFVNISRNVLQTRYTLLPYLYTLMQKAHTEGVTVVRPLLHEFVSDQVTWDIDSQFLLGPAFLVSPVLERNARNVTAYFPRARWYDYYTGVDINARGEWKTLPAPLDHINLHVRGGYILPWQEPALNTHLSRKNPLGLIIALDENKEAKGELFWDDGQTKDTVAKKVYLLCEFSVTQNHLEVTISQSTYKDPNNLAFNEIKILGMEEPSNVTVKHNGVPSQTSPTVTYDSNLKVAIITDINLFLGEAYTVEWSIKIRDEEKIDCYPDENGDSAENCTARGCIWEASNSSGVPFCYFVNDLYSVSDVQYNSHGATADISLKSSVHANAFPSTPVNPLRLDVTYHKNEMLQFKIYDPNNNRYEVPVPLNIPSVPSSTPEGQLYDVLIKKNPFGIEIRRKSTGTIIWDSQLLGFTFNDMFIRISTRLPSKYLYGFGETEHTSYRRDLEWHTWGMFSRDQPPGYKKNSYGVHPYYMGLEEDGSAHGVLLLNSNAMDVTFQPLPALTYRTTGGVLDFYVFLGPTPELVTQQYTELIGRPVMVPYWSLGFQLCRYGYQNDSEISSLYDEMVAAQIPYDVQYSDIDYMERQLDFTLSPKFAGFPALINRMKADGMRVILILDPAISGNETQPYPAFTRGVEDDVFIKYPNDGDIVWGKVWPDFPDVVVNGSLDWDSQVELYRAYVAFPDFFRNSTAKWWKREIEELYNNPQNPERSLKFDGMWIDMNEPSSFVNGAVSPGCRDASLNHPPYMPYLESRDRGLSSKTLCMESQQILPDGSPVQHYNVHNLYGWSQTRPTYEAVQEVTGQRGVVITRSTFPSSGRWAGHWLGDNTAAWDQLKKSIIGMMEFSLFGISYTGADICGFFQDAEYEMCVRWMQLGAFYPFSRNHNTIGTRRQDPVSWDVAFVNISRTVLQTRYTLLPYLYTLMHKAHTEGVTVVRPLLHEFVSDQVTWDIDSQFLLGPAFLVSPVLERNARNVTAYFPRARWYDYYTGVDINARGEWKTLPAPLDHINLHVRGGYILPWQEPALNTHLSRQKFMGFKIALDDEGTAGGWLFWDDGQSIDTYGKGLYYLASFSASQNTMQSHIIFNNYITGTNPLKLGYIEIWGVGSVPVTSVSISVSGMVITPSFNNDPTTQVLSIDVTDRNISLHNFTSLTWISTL
compound,measurement,value
CC(C)=CCC/C(C)=C/Cc1c(O)cc(O)c(C(=O)/C=C/c2ccc(O)cc2)c1O,pIC50,5.97
